Source: patent US20240415914A1, “Water Dispersible Cannabinoid Compositions” (priority 2021, published 2024)
Like-named read-outs stand apart in the source and are kept apart here.

Tests used:
[1] = assay type: physicochemical; conditions: stored at room temperature (21-25° C.)
Experimental: At each time period, 0.05 g of powder was dissolved in 10 ml-15 of ethanol, diluted to fall within the analytical range, and injected into the LCMSMS for analysis.

[2] = Stability of cannabinoid and Vitamin E components of Beverage 2 (AB Red) stored at 8° C. and 21-25° C., LCMSMS over 570 days
Experimental: The LCMSMS was calibrated for 0-50 ng/ml cannabinoids with the same resin material used in the preparation of the concentrates. At each time period, 100 μml of beverage was diluted with 10 ml of methanol and injected into the LCMSMS for analysis.

Structure (SMILES): CCCCCc1cc(O)c2c(c1)OC(C)(C)c1ccc(C)cc1-2 [CBN, cannabinol]
- Stability in Powder Concentrate (content by LCMSMS) ([1]; day 0): 0.480 mg/g powder
- Stability in Powder Concentrate (content by LCMSMS) ([1]; day 1): 0.471 mg/g powder
- Stability in Powder Concentrate (content by LCMSMS) ([1]; day 2): 0.488 mg/g powder
- Stability in Powder Concentrate (content by LCMSMS) ([1]; day 3): 0.474 mg/g powder
- Stability in Powder Concentrate (content by LCMSMS) ([1]; day 5): 0.491 mg/g powder
- Stability in Powder Concentrate (content by LCMSMS) ([1]; day 8): 0.469 mg/g powder
- Stability in Powder Concentrate (content by LCMSMS) ([1]; day 9): 0.466 mg/g powder
- Stability in Powder Concentrate (content by LCMSMS) ([1]; day 10): 0.499 mg/g powder
- Stability in Powder Concentrate (content by LCMSMS) ([1]; day 11): 0.494 mg/g powder
- Stability in Powder Concentrate (content by LCMSMS) ([1]; day 12): 0.496 mg/g powder
- Stability in Powder Concentrate (content by LCMSMS) ([1]; day 15): 0.472 mg/g powder
- Stability in Powder Concentrate (content by LCMSMS) ([1]; day 16): 0.483 mg/g powder
- Stability in Powder Concentrate (content by LCMSMS) ([1]; day 17): 0.465 mg/g powder
- Stability in Powder Concentrate (content by LCMSMS) ([1]; day 18): 0.470 mg/g powder
- Stability in Powder Concentrate (content by LCMSMS) ([1]; day 19): 0.490 mg/g powder
- Stability in Powder Concentrate (content by LCMSMS) ([1]; day 22): 0.486 mg/g powder
- Stability in Powder Concentrate (content by LCMSMS) ([1]; day 23): 0.469 mg/g powder
- Stability in Powder Concentrate (content by LCMSMS) ([1]; day 24): 0.465 mg/g powder
- Stability in Powder Concentrate (content by LCMSMS) ([1]; day 25): 0.486 mg/g powder
- Stability in Powder Concentrate (content by LCMSMS) ([1]; day 26): 0.486 mg/g powder
- Stability in Powder Concentrate (content by LCMSMS) ([1]; day 29): 0.484 mg/g powder
- Stability in Powder Concentrate (content by LCMSMS) ([1]; day 30): 0.476 mg/g powder
- Stability in Powder Concentrate (content by LCMSMS) ([1]; day 60): 0.489 mg/g powder
- Stability in Powder Concentrate (content by LCMSMS) ([1]; day 90): 0.483 mg/g powder
- Stability in Powder Concentrate (content by LCMSMS) ([1]; day 120): 0.498 mg/g powder
- Stability in Powder Concentrate (content by LCMSMS) ([1]; day 150): 0.500 mg/g powder
- Stability in Powder Concentrate (content by LCMSMS) ([1]; day 180): 0.464 mg/g powder
- Stability in Powder Concentrate (content by LCMSMS) ([1]; day 210): 0.501 mg/g powder
- Stability in Powder Concentrate (content by LCMSMS) ([1]; day 240): 0.467 mg/g powder
- Stability in Powder Concentrate (content by LCMSMS) ([1]; day 270): 0.464 mg/g powder
- Stability in Powder Concentrate (content by LCMSMS) ([1]; day 300): 0.469 mg/g powder
- Stability in Powder Concentrate (content by LCMSMS) ([1]; day 330): 0.502 mg/g powder
- Stability in Powder Concentrate (content by LCMSMS) ([1]; day 360): 0.499 mg/g powder
- Stability in Powder Concentrate (content by LCMSMS) ([1]; day 390): 0.479 mg/g powder
- Stability in Powder Concentrate (content by LCMSMS) ([1]; day 420): 0.481 mg/g powder
- Stability in Powder Concentrate (content by LCMSMS) ([1]; day 450): 0.480 mg/g powder
- Stability in Powder Concentrate (content by LCMSMS) ([1]; day 480): 0.485 mg/g powder
- Stability in Powder Concentrate (content by LCMSMS) ([1]; day 510): 0.499 mg/g powder
- Stability in Powder Concentrate (content by LCMSMS) ([1]; day 540): 0.492 mg/g powder
- Stability in Powder Concentrate (content by LCMSMS) ([1]; day 570): 0.471 mg/g powder
- Stability of Cannabinoids in AB Red ([2]; 8° C., 0 days): 2.81 µg/mL
- Stability of Cannabinoids in AB Red ([2]; 8° C., 1 days): 2.82 µg/mL
- Stability of Cannabinoids in AB Red ([2]; 8° C., 2 days): 2.74 µg/mL
- Stability of Cannabinoids in AB Red ([2]; 8° C., 3 days): 2.83 µg/mL
- Stability of Cannabinoids in AB Red ([2]; 8° C., 5 days): 2.78 µg/mL
- Stability of Cannabinoids in AB Red ([2]; 8° C., 8 days): 2.80 µg/mL
- Stability of Cannabinoids in AB Red ([2]; 8° C., 9 days): 2.74 µg/mL
- Stability of Cannabinoids in AB Red ([2]; 8° C., 10 days): 2.79 µg/mL
- Stability of Cannabinoids in AB Red ([2]; 8° C., 11 days): 2.73 µg/mL
- Stability of Cannabinoids in AB Red ([2]; 8° C., 12 days): 2.76 µg/mL
- Stability of Cannabinoids in AB Red ([2]; 8° C., 15 days): 2.77 µg/mL
- Stability of Cannabinoids in AB Red ([2]; 8° C., 16 days): 2.83 µg/mL
- Stability of Cannabinoids in AB Red ([2]; 8° C., 17 days): 2.80 µg/mL
- Stability of Cannabinoids in AB Red ([2]; 8° C., 18 days): 2.78 µg/mL
- Stability of Cannabinoids in AB Red ([2]; 8° C., 19 days): 2.78 µg/mL
- Stability of Cannabinoids in AB Red ([2]; 8° C., 22 days): 2.73 µg/mL
- Stability of Cannabinoids in AB Red ([2]; 8° C., 23 days): 2.79 µg/mL
- Stability of Cannabinoids in AB Red ([2]; 8° C., 24 days): 2.76 µg/mL
- Stability of Cannabinoids in AB Red ([2]; 8° C., 25 days): 2.83 µg/mL
- Stability of Cannabinoids in AB Red ([2]; 8° C., 26 days): 2.79 µg/mL
- Stability of Cannabinoids in AB Red ([2]; 8° C., 29 days): 2.77 µg/mL
- Stability of Cannabinoids in AB Red ([2]; 8° C., 30 days): 2.77 µg/mL
- Stability of Cannabinoids in AB Red ([2]; 8° C., 60 days): 2.73 µg/mL
- Stability of Cannabinoids in AB Red ([2]; 8° C., 90 days): 2.80 µg/mL
- Stability of Cannabinoids in AB Red ([2]; 8° C., 120 days): 2.69 µg/mL
- Stability of Cannabinoids in AB Red ([2]; 8° C., 150 days): 2.69 µg/mL
- Stability of Cannabinoids in AB Red ([2]; 8° C., 180 days): 2.74 µg/mL
- Stability of Cannabinoids in AB Red ([2]; 8° C., 210 days): 2.69 µg/mL
- Stability of Cannabinoids in AB Red ([2]; 8° C., 240 days): 2.74 µg/mL
- Stability of Cannabinoids in AB Red ([2]; 8° C., 270 days): 2.76 µg/mL
- Stability of Cannabinoids in AB Red ([2]; 8° C., 300 days): 2.75 µg/mL
- Stability of Cannabinoids in AB Red ([2]; 8° C., 330 days): 2.71 µg/mL
- Stability of Cannabinoids in AB Red ([2]; 8° C., 390 days): 2.72 µg/mL
- Stability of Cannabinoids in AB Red ([2]; 8° C., 420 days): 2.69 µg/mL
- Stability of Cannabinoids in AB Red ([2]; 8° C., 450 days): 2.71 µg/mL
- Stability of Cannabinoids in AB Red ([2]; 8° C., 480 days): 2.66 µg/mL
- Stability of Cannabinoids in AB Red ([2]; 8° C., 510 days): 2.62 µg/mL
- Stability of Cannabinoids in AB Red ([2]; 8° C., 540 days): 2.60 µg/mL
- Stability of Cannabinoids in AB Red ([2]; 8° C., 570 days): 2.58 µg/mL
- Stability of Cannabinoids in AB Red ([2]; 21-25° C., 0 days): 2.81 µg/mL
- Stability of Cannabinoids in AB Red ([2]; 21-25° C., 1 days): 2.73 µg/mL
- Stability of Cannabinoids in AB Red ([2]; 21-25° C., 2 days): 2.83 µg/mL
- Stability of Cannabinoids in AB Red ([2]; 21-25° C., 3 days): 2.78 µg/mL
- Stability of Cannabinoids in AB Red ([2]; 21-25° C., 5 days): 2.71 µg/mL
- Stability of Cannabinoids in AB Red ([2]; 21-25° C., 8 days): 2.74 µg/mL
- Stability of Cannabinoids in AB Red ([2]; 21-25° C., 9 days): 2.72 µg/mL
- Stability of Cannabinoids in AB Red ([2]; 21-25° C., 10 days): 2.73 µg/mL
- Stability of Cannabinoids in AB Red ([2]; 21-25° C., 11 days): 2.83 µg/mL
- Stability of Cannabinoids in AB Red ([2]; 21-25° C., 12 days): 2.70 µg/mL
- Stability of Cannabinoids in AB Red ([2]; 21-25° C., 15 days): 2.77 µg/mL
- Stability of Cannabinoids in AB Red ([2]; 21-25° C., 16 days): 2.81 µg/mL
- Stability of Cannabinoids in AB Red ([2]; 21-25° C., 17 days): 2.74 µg/mL
- Stability of Cannabinoids in AB Red ([2]; 21-25° C., 18 days): 2.80 µg/mL
- Stability of Cannabinoids in AB Red ([2]; 21-25° C., 19 days): 2.70 µg/mL
- Stability of Cannabinoids in AB Red ([2]; 21-25° C., 22 days): 2.70 µg/mL
- Stability of Cannabinoids in AB Red ([2]; 21-25° C., 23 days): 2.82 µg/mL
- Stability of Cannabinoids in AB Red ([2]; 21-25° C., 24 days): 2.78 µg/mL
- Stability of Cannabinoids in AB Red ([2]; 21-25° C., 25 days): 2.84 µg/mL
- Stability of Cannabinoids in AB Red ([2]; 21-25° C., 26 days): 2.70 µg/mL
- Stability of Cannabinoids in AB Red ([2]; 21-25° C., 29 days): 2.78 µg/mL
- Stability of Cannabinoids in AB Red ([2]; 21-25° C., 30 days): 2.77 µg/mL
- Stability of Cannabinoids in AB Red ([2]; 21-25° C., 60 days): 2.78 µg/mL
- Stability of Cannabinoids in AB Red ([2]; 21-25° C., 90 days): 2.75 µg/mL
- Stability of Cannabinoids in AB Red ([2]; 21-25° C., 120 days): 2.77 µg/mL
- Stability of Cannabinoids in AB Red ([2]; 21-25° C., 150 days): 2.75 µg/mL
- Stability of Cannabinoids in AB Red ([2]; 21-25° C., 180 days): 2.70 µg/mL
- Stability of Cannabinoids in AB Red ([2]; 21-25° C., 210 days): 2.70 µg/mL
- Stability of Cannabinoids in AB Red ([2]; 21-25° C., 240 days): 2.73 µg/mL
- Stability of Cannabinoids in AB Red ([2]; 21-25° C., 270 days): 2.73 µg/mL
- Stability of Cannabinoids in AB Red ([2]; 21-25° C., 300 days): 2.70 µg/mL
- Stability of Cannabinoids in AB Red ([2]; 21-25° C., 330 days): 2.75 µg/mL
- Stability of Cannabinoids in AB Red ([2]; 21-25° C., 390 days): 2.65 µg/mL
- Stability of Cannabinoids in AB Red ([2]; 21-25° C., 420 days): 2.64 µg/mL
- Stability of Cannabinoids in AB Red ([2]; 21-25° C., 450 days): 2.68 µg/mL
- Stability of Cannabinoids in AB Red ([2]; 21-25° C., 480 days): 2.58 µg/mL
- Stability of Cannabinoids in AB Red ([2]; 21-25° C., 510 days): 2.66 µg/mL
- Stability of Cannabinoids in AB Red ([2]; 21-25° C., 540 days): 2.65 µg/mL
- Stability of Cannabinoids in AB Red ([2]; 21-25° C., 570 days): 2.58 µg/mL
